Measured values reported in patent publication US6645949B1, “Toxicity of boron compounds to certain arthropods” (University of Florida, priority 2000, dated 2003).
“And” between values parts separate entries of the source, which are not always exact repeats. Equal values may be shown once.

System: Diamond Back Moth (DBM; Plutella xylostella)
Experiment: Control of diamond back moth and inhibition of egg deposition, cage test with sugar pads
Type: in vivo
Conditions: 4% in 10% sucrose
Experimental: On day one, six cages (24″ cube) were set up with five virgin DBM females and five virgin DBM males, one cabbage seedling, and one sugar pad (10% sucrose) in each cage. The sugar solution in three cages also contained 4% sodium tetraborate (4 g+96 ml, w:v water). The virgin adult DBM were obtained by isolating colony pupae individually in vials two days prior. The adults emerged one day prior to day one and on day one. They were provided a 10% sugar solution with or without sodium tetraborate, as soon as they emerged, by placing the vials with cloth bottoms on cotton pads.
The cages were placed in environmental rooms where the temperature was 25-26° C. and the day length was 14 hours.
Sugar pads were a single layer of rolled cotton approximately 8 cm square. Each pad was soaked in the appropriate solution, placed in the bottom of a petri dish (95×15 mm), and the excess water was pressed out. Each pad held about 30 ml of solution.
The cabbage seedlings were in Descn. No. 12 plastic pots. The surface of the soil was covered with a thin layer of Plaster of Paris.
On each of days two, three, four, five, and six, the sugar pads and plants were changed (once) between 1:00 p.m. and 5:00 p.m.

[1] = Day 7, cages 1-3, one cage per cell
[2] = Total of Days 2-7, cages 1-3, one cage per cell
[3] = Total of Days 2-7 and of 3 cages
[4] = relative to sugar control, Days 2-7

O=BOB(O)OB(O)OB=O [Sodium tetraborate, sodium tetraborate]
Percent Hatch, Average (Average of the 3 cages, Days 2-7): 66.4% | Number of Eggs, Average (Average per cage over Days 2-7): 354.7 | Number of Larvae, Average (Average per cage over Days 2-7): 235.3 | Number of Dead Females (Day 2, Total of 3 cages): 0 | Number of Dead Males (Day 2, Total of 3 cages): 0 | Number of Eggs (Day 2, Total of 3 cages): 202 | Number of Larvae (Day 2, Total of 3 cages): 99 | Percent Hatch (Day 2, Total): 44.8% | Number of Dead Females (Day 2, cages 1-3, five females per cage): 0 | Number of Dead Males (Day 2, cages 1-3, five males per cage): 0 | Percent Hatch (Day 2, cages 1-3, one cage per cell): 40.9% and 58.2% and 35.4% | Number of Dead Females (Day 3, Total of 3 cages): 1 | Number of Dead Males (Day 3, Total of 3 cages): 0 | Number of Eggs (Day 3, Total of 3 cages): 499 | Number of Larvae (Day 3, Total of 3 cages): 388 | Percent Hatch (Day 3, Total): 79.9% | Number of Dead Males (Day 3, cages 1-3, five males per cage): 0 | Percent Hatch (Day 3, cages 1-3, one cage per cell): 73.7% and 74.2% and 91.7% | Number of Dead Females (Day 4, Total of 3 cages): 1 | Number of Dead Males (Day 4, Total of 3 cages): 0 | Number of Eggs (Day 4, Total of 3 cages): 185 | Number of Larvae (Day 4, Total of 3 cages): 113 | Percent Hatch (Day 4, Total): 57.0% | Number of Dead Males (Day 4, cages 1-3, five males per cage): 0 | Percent Hatch (Day 4, cages 1-3, one cage per cell): 47.5% and 52.2% and 71.3% | Number of Dead Females (Day 5, Total of 3 cages): 1 | Number of Dead Males (Day 5, Total of 3 cages): 2 | Number of Eggs (Day 5, Total of 3 cages): 119 | Number of Larvae (Day 5, Total of 3 cages): 70 | Percent Hatch (Day 5, Total): 54.3% | Number of Dead Females (Day 6, Total of 3 cages): 3 | Number of Dead Males (Day 6, Total of 3 cages): 4 | Number of Eggs (Day 6, Total of 3 cages): 58 | Number of Larvae (Day 6, Total of 3 cages): 36 | Percent Hatch (Day 6, Total): 63.3% | Number of Dead Females (Day 6, cages 1-3, five females per cage): 1 | Number of Dead Females (Day 7, Total of 3 cages): 6 | Number of Dead Males (Day 7, Total of 3 cages): 4 | Number of Eggs (Day 7, Total of 3 cages): 1 | Number of Larvae (Day 7, Total of 3 cages): 0 | Number of Live Females (Day 7, Total of 3 cages): 2 | Number of Live Males (Day 7, Total of 3 cages): 2 | Percent Hatch (Day 7, Total): 0.0% | Number of Dead Males (Day 7, cages 1-3, five males per cage): 2 and 1 | Number of Larvae [1]: 0 | Percent Hatch [1]: 0.0% | Percent Hatch, Total (Days 2-7 together, cages 1-3, one cage per cell): 60.9% and 65.5% and 72.9% | Number of Eggs, Total [2]: 419 and 261 and 384 | Number of Larvae, Total [2]: 255 and 171 and 280 | Number of Eggs, Total [3]: 1064 | Number of Larvae, Total [3]: 706 | Number of Eggs, % of sugar [4]: 57.1% | Number of Larvae, % of sugar [4]: 64.2%
